# Read-outs that look alike come from different tables or passages of the source.
# What was measured:
# [1] = tested on: eight tumour cells lines derived from seven cancer types; assay: In vitro anticancer activity, SRB assay, panel of eight cell lines; assay type: cell-based; conditions: Homo sapiens, range over the eight cell lines per compound; read-out: GI50 range against cancer cell lines
# Procedure: (§1) Anticancer activity: In vitro biological activity studies were carried out at the Advance Center for Treatment Research & Education in Cancer (ACTREC), Navi Mumbai.
# (§2) The compounds were evaluated for in vitro anticancer activity against eight tumour cells lines derived from seven cancer types (non-small-cell lung, colon, oral, cervix, ovarian, prostate, and breast cancer) as shown in Table 2. For each compound, dose response curves for each cell line were measured at a minimum of five concentrations at 10 fold dilutions. A protocol of 48 h continuous drug exposure was used and a sulforhodamine B (SRB) protein assay was used to estimate cell viability or growth. The concentration causing 50% cell growth inhibition (GI50) and 50% cell death (LC50, −50% growth) compared with the control was calculated. Compounds 9a-9l have been evaluated for their in vitro cytotoxicity in eight cell lines from seven human cancer types of lung (Hop-62, A-549) colon (COLO-205) cervix (Si—Ha), ovary (A-2780), prostate (PC3) breast (MCF7), oral (KB). The results are expressed as percent of cell growth determined relative to that of untreated control cells (Table-8 and table-9).
# [2] = tested on: duplex-form calf thymus DNA (CT-DNA); assay: Thermal denaturation studies with calf thymus DNA (DNA binding affinity); conditions: [PBD]:[DNA] 1:5, CT-DNA 100 μM, ligand 20 μM, pH 7.00
# Procedure: Compounds have been subjected to thermal denaturation studies with duplex-form calf thymus DNA (CT-DNA) using an modification of a reported procedure (Newman, M. S. Carcinog-compr. Surv. 1976,1, 203; (b) Hecht, S. S.; Loy, M.; Hoffman, Carcinog-compr. Surv. 1976, 1, 325). Working solutions in aqueous buffer (10 mM NaH2PO4/Na2HPO4, 1 mM Na2EDTA, pH 7.00+0.01) containing CT-DNA (100 μm in phosphate) and the PBD (20 μm) have been prepared by addition of concentrated PBD solutions in DMSO to obtain a fixed [PBD]/[DNA] molar ratio of 1:5. The DNA-PBD solutions have been incubated at 37° C. for 0 and 18 h prior to analysis. Samples have been monitored at 260 using a Beckman DU-800 spectrophotometer fitted with high performance temperature controller, and heated at 1° C. min^−1 in the 40-110° C. range. DNA helix→coil transition temperatures (Tm) have been obtained from the maxima in the d(A260)/dT derivative plots. Drug-induced alterations in DNA melting behavior are given by: ΔTm=Tm(DNA+PBD)−Tm(DNA alone), where the Tm value for the PBD-free CT-DNA is 69.1±0.01.
# The DNA binding activity for these novel C8-linked benzothiazole, benzoxazole-PBD hybrids has been examined by thermal denaturation studies using calf thymus (CT) DNA. […] The data for the compounds 9a-n is included in Table 7 for comparison.
# [3] = tested on: KB (oral cancer) cell line; assay: In vitro anticancer activity, SRB assay, KB; assay type: cell-based, human; conditions: for GI50: mean of three determinations; for CC50: read-out: LC50 KB, 50% cell death
# Procedure: as §1, §2
# [4] = tested on: Colo 205 (colon cancer) cell line; assay: cells; assay type: cell-based; conditions: for GI50: mean of three determinations
# Procedure: as §1, §2
# [5] = tested on: PC 3 (prostate cancer) cell line; assay: cells; assay type: cell-based; conditions: for GI50: read-out: GI50 PC 3
# Procedure: as §1, §2
# [6] = tested on: A 549 (lung cancer) cell line; assay: cells; assay type: cell-based; conditions: for GI50: mean of three determinations
# Procedure: as §1, §2
# [7] = tested on: HOP 62 (lung cancer) cell line; assay: cells; assay type: cell-based; conditions: for GI50: mean of three determinations; for LC50: read-out: LC50 HOP 62, 50% cell death
# Procedure: as §1, §2
# [8] = tested on: A 2780 (ovary cancer) cell line; assay: cells; assay type: cell-based; conditions: for GI50: mean of three determinations
# Procedure: as §1, §2
# [9] = tested on: SiHa (cervix cancer) cell line; assay: cells; assay type: cell-based; conditions: for GI50: mean of three determinations; for LC50 (concentration causing 50% cell death): read-out: LC50 SiHa, 50% cell death
# Procedure: as §1, §2
# [10] = tested on: MCF 7 (breast cancer) cell line; assay: cells; assay type: cell-based; conditions: for GI50: read-out: GI50 MCF 7; for LC50 (concentration causing 50% cell death): read-out: LC50 MCF 7, 50% cell death
# Procedure: as §1, §2
# [11] = tested on: duplex-form calf thymus DNA (CT-DNA); conditions: comparative data, hybrids without piperazine, cited from earlier work
# [12] = Homo sapiens, 48 h, read-out: GI50 KB, 48 h drug exposure, SRB
# [13] = Homo sapiens, 48 h, 48 h drug exposure, SRB
# [14] = Homo sapiens, COLO 205, 48 h, read-out: GI50 Colo 205, 48 h drug exposure, SRB
# [15] = Homo sapiens, COLO 205, 48 h, read-out: LC50 Colo 205
# [16] = Homo sapiens, 48 h, read-out: LC50 Pc 3, 50% cell death, 48 h drug exposure, SRB
# [17] = Homo sapiens, A549, 48 h, read-out: GI50 A 549, 48 h drug exposure, SRB
# [18] = Homo sapiens, A549, 48 h, read-out: LC50 A 549, 50% cell death, 48 h drug exposure, SRB
# [19] = Homo sapiens, HOP-62, 48 h, read-out: GI50 HOP 62, 48 h drug exposure, SRB
# [20] = Homo sapiens, HOP-62, 48 h, 48 h drug exposure, SRB
# [21] = Homo sapiens, A2780, 48 h, read-out: GI50 A 2780, 48 h drug exposure, SRB
# [22] = Homo sapiens, A2780, 48 h, read-out: LC50 A 2780, 50% cell death, 48 h drug exposure, SRB
# [23] = Homo sapiens, SiHa, 48 h, read-out: GI50 SiHa, 48 h drug exposure, SRB
# [24] = Homo sapiens, SiHa, 48 h, 48 h drug exposure, SRB
# [25] = Homo sapiens, MCF7, 48 h, 48 h drug exposure, SRB
# [26] = 48 h drug exposure, SRB, read-out: GI50 KB
smiles,measurement,setting,value
"COc1cc2c(cc1OCCCN1CCN(CCCOc3cccc(-c4nc5ccccc5s4)c3)CC1)N=C[C@@H]1CCCN1C2=O [Compound 9d, 7-Methoxy-8-[3-(4-{3-[3(1,3-benzothiazol-2-yl)-phenoxy]propyl}piperazin-1-yl)propyl]oxy-(11aS)-1,2,3,11a-tetrahydro-5H-pyrrolo[2,1-c][1,4]benzodiazepin-5-one]",GI50,[1],≤ 120 nM
same,ΔTm after incubation at 37° C. for 0 h,[2],11.2 °C
same,ΔTm after incubation at 37° C. for 18 h,[2],11.5 °C
same,GI50,[3]; [12],110 nM
same,CC50,[3]; [13],2300 nM
same,GI50,[4]; [14],110 nM
same,CC50,[4]; [15],> 100000 nM
same,GI50,"[5]; Homo sapiens, 48 h",< 10 nM
same,CC50,[5]; [16],28000 nM
same,GI50,[6]; [17],< 10 nM
same,CC50,[6]; [18],> 100000 nM
same,GI50,[7]; [19],< 10 nM
same,LC50,[7]; [20],27000 nM
same,GI50,[8]; [21],99 nM
same,CC50,[8]; [22],2400 nM
same,GI50,[9]; [23],120 nM
same,LC50 (concentration causing 50% cell death),[9]; [24],26000 nM
same,GI50,"[10]; Homo sapiens, MCF7, 48 h",10 nM
same,LC50 (concentration causing 50% cell death),[10]; [25],2100 nM
"COc1cc2c(cc1OCCCCN1CCN(CCCCOc3cccc(-c4nc5ccccc5s4)c3)CC1)N=C[C@@H]1CCCN1C2=O [Compound 9h, 7-Methoxy-8-[4-(4-{4-[3(1,3-benzothiazol-2-yl)-phenoxy]butyl}piperazin-1-yl)butyl]oxy-(11aS)-1,2,3,11a-tetrahydro-5H-pyrrolo[2,1-c][1,4]benzodiazepin-5-one]",ΔTm after incubation at 37° C. for 0 h,[2],11.9 °C
same,ΔTm after incubation at 37° C. for 18 h,[2],12.3 °C
same,GI50,[3]; [12],120 nM
same,CC50,[3]; [13],200 nM
same,GI50,[4]; [14],160 nM
same,CC50,[4]; [15],> 100000 nM
same,GI50,"[5]; Homo sapiens, 48 h",140 nM
same,CC50,[5]; [16],2400 nM
same,GI50,[6]; [17],120 nM
same,CC50,[6]; [18],> 100000 nM
same,GI50,[7]; [19],100 nM
same,LC50,[7]; [20],27000 nM
same,GI50,[8]; [21],109 nM
same,CC50,[8]; [22],2300 nM
same,GI50,[9]; [23],130 nM
same,LC50 (concentration causing 50% cell death),[9]; [24],27000 nM
same,GI50,"[10]; Homo sapiens, MCF7, 48 h",120 nM
same,LC50 (concentration causing 50% cell death),[10]; [25],2200 nM
"COc1cccc2c1C(=O)c1c(O)c3c(c(O)c1C2=O)C[C@@](O)(C(=O)CO)C[C@@H]3O[C@H]1C[C@H](N)[C@H](O)[C@H](C)O1 [ADR, adriamycin, reference compound]",GI50,"[3]; Homo sapiens, 48 h, 48 h drug exposure, SRB, read-out: GI50 KB",160 nM
same,GI50,"[4]; Homo sapiens, COLO 205, 48 h drug exposure, SRB, read-out: GI50 Colo 205",14700 nM
same,GI50,"[5]; Homo sapiens, 48 h drug exposure, SRB, mean of three determinations",< 10 nM
same,GI50,"[6]; Homo sapiens, A549, 48 h drug exposure, SRB, read-out: GI50 A 549",13000 nM
same,GI50,"[7]; Homo sapiens, HOP-62, 48 h drug exposure, SRB, read-out: GI50 HOP 62",< 10 nM
same,GI50,"[8]; Homo sapiens, A2780, 48 h drug exposure, SRB, read-out: GI50 A 2780",2 nM
same,GI50,"[9]; Homo sapiens, SiHa, 48 h drug exposure, SRB, read-out: GI50 SiHa",190 nM
same,GI50,"[10]; Homo sapiens, MCF7, 48 h drug exposure, SRB, mean of three determinations",< 10 nM
"COc1cc(-c2nc3ccccc3s2)ccc1OCCCCN1CCN(CCCCOc2cc3c(cc2OC)C(=O)N2CCC[C@H]2C=N3)CC1 [Compound 9m, 7-Methoxy-8-[4-(4-{4-[4(1,3-benzothiazol-2-yl)-2-methoxyphenoxy]butyl}piperazin-1-yl)butyl]oxy-(11aS)-1,2,3,11a-tetrahydro-5H-pyrrolo[2,1-c][1,4]benzodiazepin-5-one]",ΔTm after incubation at 37° C. for 0 h,[2],12.1 °C
same,ΔTm after incubation at 37° C. for 18 h,[2],12.5 °C
"COc1cc2c(cc1OCCCCN1CCN(CCCCOc3cccc(-c4nc5ccccc5s4)c3)CC1)N=C[C@@H]1CCCN1C2=O [Compound 9n, 7-Methoxy-8-[4-(4-{4-[3(1,3-benzothiazol-2-yl)-phenoxy]butyl}piperazin-1-yl)butyl]oxy-(11aS)-1,2,3,11a-tetrahydro-5H-pyrrolo[2,1-c][1,4]benzodiazepin-5-one]",ΔTm after incubation at 37° C. for 0 h,[2],10.3 °C
same,ΔTm after incubation at 37° C. for 18 h,[2],10.6 °C
"COc1cc2c(cc1OCCCCN1CCN(CCCCOc3ccc(-c4nc5ccccc5s4)cc3)CC1)N=C[C@@H]1CCCN1C2=O [Compound 9e, 7-Methoxy-8-[4-(4-{4-[4(1,3-benzothiazol-2-yl)-phenoxy]butyl}piperazin-1-yl)butyl]oxy-(11aS)-1,2,3,11a-tetrahydro-5H-pyrrolo[2,1-c][1,4]benzodiazepin-5-one]",ΔTm after incubation at 37° C. for 0 h,[2],12.2 °C
same,ΔTm after incubation at 37° C. for 18 h,[2],12.6 °C
same,LC50 KB,"[3]; 50% cell death, 48 h drug exposure, SRB",2300 nM
same,GI50,[3]; [26],<10 nM
same,CC50,"[4]; human, 48 h",> 100000 nM
same,GI50,"[4]; read-out: GI50 Colo 205, 48 h drug exposure, SRB",120 nM
same,GI50,"[5]; Homo sapiens, 48 h",< 10 nM
same,CC50,"[5]; human, 48 h",2500 nM
same,CC50,"[6]; human, 48 h",> 100000 nM
same,GI50,"[6]; read-out: GI50 A 549, 48 h drug exposure, SRB",105 nM
same,CC50,"[7]; human, 48 h",27000 nM
same,GI50,"[7]; read-out: GI50 HOP 62, 48 h drug exposure, SRB",< 10 nM
same,GI50,[8]; [21],97 nM
same,CC50,"[8]; human, 48 h",2200 nM
same,GI50,[9]; [23],107 nM
same,CC50,"[9]; human, 48 h",27800 nM
same,GI50,"[10]; Homo sapiens, MCF7, 48 h",< 10 nM
same,CC50,"[10]; human, 48 h",150 nM
"COc1cc2c(cc1O)N=CC1CCCN1C2=O (stereo not shown) [DC-81, reference compound]",ΔTm after incubation at 37° C. for 0 h,[2],0.3 °C
same,ΔTm after incubation at 37° C. for 18 h,[2],0.7 °C
same,GI50,[3]; [26],170 nM
same,GI50,"[4]; 48 h drug exposure, SRB, read-out: GI50 Colo 205",100 nM
same,GI50,"[7]; 48 h drug exposure, SRB, read-out: GI50 HOP 62",110 nM
same,GI50,"[8]; 48 h drug exposure, SRB, read-out: GI50 A 2780",130 nM
same,GI50,"[9]; 48 h drug exposure, SRB, read-out: GI50 SiHa",160 nM
same,GI50,"[10]; 48 h drug exposure, SRB, mean of three determinations",160 nM
COc1cc(-c2nc3ccccc3o2)ccc1OCCCCCOc1cc2c(cc1OC)C(=O)N1CCC[C@H]1C=N2 [Compound 30b],ΔTm after incubation at 37° C. for 0 h (PBD hybrids with out piperizine),[11],4.2 °C
same,ΔTm after incubation at 37° C. for 18 h (PBD hybrids with out piperizine),[11],4.3 °C
COc1cc2c(cc1OCCCCCOc1ccc(-c3nc4ccccc4o3)cc1)N=C[C@@H]1CCCN1C2=O [Compound 30a],ΔTm after incubation at 37° C. for 0 h (PBD hybrids with out piperizine),[11],4.1 °C
same,ΔTm after incubation at 37° C. for 18 h (PBD hybrids with out piperizine),[11],4.3 °C
